One assay deals with T1, Sclerostin (Homo sapiens, UniProt Q9BQB4).
T1 construct: host or cells: human cells (reporter cells)
T1 sequence (Q9BQB4 24-213): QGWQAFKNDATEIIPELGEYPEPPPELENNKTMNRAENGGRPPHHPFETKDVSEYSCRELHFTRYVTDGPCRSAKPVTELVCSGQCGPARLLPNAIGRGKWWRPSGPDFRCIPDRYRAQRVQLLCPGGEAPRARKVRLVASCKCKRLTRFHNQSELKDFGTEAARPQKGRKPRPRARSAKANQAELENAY
The experiment in a line: luciferase Wnt pathway activity assay (inhibition of sclerostin by restoration of Wnt signaling). The format is cell-based. As to conditions: for identified as promoting bone growth (Wnt signaling / inhibition of sclerostin): human cells, luciferase Wnt pathway activity; for concentration at which compound inhibits sclerostin and restores normal Wnt activity (RLU): human embryonic cells, luciferase RLU, p<0.05. The procedure:
The Y axis represents Relative Light Units (RLU) which represents Wnt pathway signaling. Addition of Wnt (W) activates the Wnt pathway, while addition of Sclerostin (S) inhibits the Wnt pathway. Addition of Compound 1 inhibits sclerostin and restores normal Wnt activity at 3 μM. Asterisks represent statistically significant p<0.05.
The Y axis represents Relative Light Units (RLU) which represents Wnt pathway signaling. Addition of Wnt (W) activates the Wnt pathway, while addition of Sclerostin (S) inhibits the Wnt pathway. Addition of Compound 2 inhibits sclerostin and restores normal Wnt activity at 10 μM. Asterisks represent statistically significant p<0.05.
Briefly, human cells are treated with a predetermined dose of a candidate compound for a complete dosing schedule. Control vehicle treated cells are treated with a control solution, preferably a non-irritating buffer solution or other carrier. Once the dosing schedule has been completed, both test and control assays are examined for luciferase Wnt pathway activity to determine the quantity of Wnt signaling and thus inhibition of sclerostin.
Bars marked with a double asterisk indicate a significant difference as compared to S, but not as compared to W. Concentrations are indicated along the X axis in micromolar values.
Concentrations are indicated along the X axis in micromolar values.

For a further assay, the system named is osteocalcin (OCN). Nature of the assay: Bone formation assay: osteocalcin (OCN) ELISA in cells treated with sclerostin and compound. The format is cell-based, human. From the text:
Bone formation can be assayed in vitro or in vivo using a serum marker for bone formation, osteocalcin (OCN). OCN is commercially available, e.g., from Biomedical Technologies, Inc. (Stoughton, Mass.). In one exemplary assay, using the manufacturer's protocol for the mouse osteocalcin EIA kit (described at http://www.btiinc.com/page/cata2/html#mouse_osteocalcin) bone formation in cells such as MC3T3 osteoblast cells can be assayed by measuring the concentration of OCN. An ELISA assay followed by spectrophotometer optical density (OD) readings to measure the concentration of OCN is used to detect the level of OCN secreted from cells, e.g., cells treated with a vehicle control, a sclerostin control, or with a combination of sclerostin and a compound as described herein. In some embodiments, the cells are treated with increasing doses of the control or compound.
Compound 2 was added in increasing amounts (0.13 μM-100 μM) with sclerostin at 1/8 volume.
For orientation: In an ELISA, binding on a coated surface is turned into a signal by an enzyme label.

From US20130315965A1, “HARMINE DERIVATIVES FOR PROMOTING BONE GROWTH” (OssiFi, Inc., priority 2012, published 2013) come the findings set out here.

In the case of `Cc1nc(O)cc2c1[nH]c1ccccc12` [Compound 1, 3-hydroxy-1-methyl-9H-pyrido[3,4-b]indole], at Sclerostin, the “identified as promoting bone growth (Wnt signaling / inhibition of sclerostin)” value is given as “identified as promoting bone growth”; the “concentration at which compound inhibits sclerostin and restores normal Wnt activity (RLU)” value amounted to 3 µM.
As to `COc1ccc(-c2nccc3c2[nH]c2ccccc23)cc1` [Compound 2, 1-(4-methoxyphenyl)-9H-pyrido[3,4-b]indole], the “effect on OCN induction blocked by sclerostin” value with osteocalcin (OCN) (0.13 μM-100 μM compound with sclerostin at 1/8 volume) is recorded as “restoration of OCN activity that was blocked by sclerostin”. In addition, in the assay on osteocalcin (OCN) (20 μM compound with Sclerostin at 1/8 volume), the “stimulation of bone formation marker OCN versus vehicle-treated cells with No Sclerostin (NS)” value is on record as “stimulation of OCN well over that of the vehicle-treated cells”. For the same compound, at Sclerostin, the “identified as promoting bone growth (Wnt signaling / inhibition of sclerostin)” value is on record as “identified as promoting bone growth”; the “concentration at which compound inhibits sclerostin and restores normal Wnt activity (RLU)” value is 10 µM.
